Measured values reported in PMC4706877, “Antibacterial and Cytotoxic Activity of Compounds Isolated from Flourensia oolepis” (Evidence-based Complementary and Alternative Medicine : eCAM, 2015).
Converted amounts (≈) assume the structure as drawn. Where two headings read alike, the source gives them in different places.

Tests used:
K562 cells = test: Cell cycle distribution by flow cytometry (PI); assay type: cell-based, human; settings: 2 × IC50, 72 h
Protocol: […] After treatment, cells were harvested and washed twice with ice cold PBS. Then, cells were fixed with 70% cold ethanol and kept at 4°C for 24 h. Before analysis, the cells were washed twice with PBS and stained with a solution containing propidium iodide (PI, 50 μg/mL, Sigma-Aldrich CO, USA) and RNase A (100 μg/mL, Sigma-Aldrich CO, USA) in PBS (pH 7.4) for 30 min in the dark. DNA content was evaluated by flow cytometry. The relative distribution of at least 20,000 cells was analyzed using FlowJo software version 7.6.2 (Tree Star, Inc. OR, USA).

CCRF-CEM cells = test: Cell cycle distribution by flow cytometry (PI); assay type: cell-based, human; settings: 2 × IC50, 72 h
Protocol: Control cells were devoid of 1 and negative controls contained 1% ethanol. After treatment, cells were harvested and washed twice with ice cold PBS. Then, cells were fixed with 70% cold ethanol and kept at 4°C for 24 h. Before analysis, the cells were washed twice with PBS and stained with a solution containing propidium iodide (PI, 50 μg/mL, Sigma-Aldrich CO, USA) and RNase A (100 μg/mL, Sigma-Aldrich CO, USA) in PBS (pH 7.4) for 30 min in the dark. DNA content was evaluated by flow cytometry. The relative distribution of at least 20,000 cells was analyzed using FlowJo software version 7.6.2 (Tree Star, Inc. OR, USA).

normal hepatocytes = tested on: normal hepatocytes; parameters: method as in PMID 15223357; settings: trypan blue exclusion method; cited from earlier work
[1] = tested on: Lucena 1 cells (MDR, P-glycoprotein overexpressing); test: cells; assay type: cell-based, human; settings: for IC50: Lucena 1, MTT, 72 h, read-out: IC50 values and 95% confidence limits (lower, upper)
Protocol: (§1) The HEK293T non-tumor derived cell line and human isolated mononuclear cells (PBMC) were also tested. […] Cells were cultured at 37°C in a 5% CO2 humidified environment.
(§2) The latter concentration was then used for maintenance of the cells. Lucena 1 were continuously cultured in the presence of 60 nM DOX. Both cell lines were grown in drug-free medium 3-4 days before the experiments. Overexpression of P-glycoprotein (P-gp) in both MDR variants was verified by flow cytometry using FITC-labeled mouse anti-human P-gp (BD Pharmingen, USA). Cells were subcultured twice a week from frozen stocks and used before the 20th passage. All experiments were performed with cells in the logarithmic growth phase with cell viabilities over 90%, determined by trypan blue staining.
(§3) To investigate the cytotoxic potential of the isolated compounds, the MTT colorimetric assay was performed. […] The compounds were evaluated at a final maximum concentration of 100 μM. After 72 hours, 20 μL of 5 mg/mL solution of MTT in sterile PBS was added to each well and further incubated for 4 h. Then, the supernatants were removed and replaced with 100 μL DMSO to solubilize the resulting purple formazan crystals produced from metabolically viable cells. Absorbance was measured with an iMark micro-plate reader (Bio-Rad, USA) at 595 nm. Two wells were used for each concentration of the products assayed and three independent experiments were performed. […] The percentage of cytotoxic activity of the assayed compounds was determined by the following formula: cytotoxicity (%) = [1 − (optical density of treated cells − optical density DMSO)/(optical density of ethanol control cells − optical density DMSO)] × 100.
(§4) Data were analyzed by one-way analysis of variance (ANOVA) and means were compared using Bonferroni's comparison test, with p ≤ 0.05 considered as statistically significant.

[2] = tested on: CEM/ADR5000 cells (MDR, P-glycoprotein overexpressing); test: cells; assay type: cell-based, human; settings: for IC50: CEM/ADR5000, MTT, 72 h, read-out: IC50 values and 95% confidence limits (lower, upper)
Protocol: as §1, §2, §3, §4

[3] = tested on: peripheral blood mononuclear cells (PBMC); test: MTT cell proliferation assay; assay type: cell-based; settings: Homo sapiens
Source text: (§5) CCRF-CEM acute lymphoblastic leukemia (ALL) and K562 chronic myeloid leukemia (CML) cells and their MDR P-glycoprotein overexpressing variants, CEM/ADR5000 and Lucena 1, respectively, were a generous gift from Dr. T. Efferth (Institute of Pharmacy and Biochemistry, Johannes Gutenberg University, Mainz, Germany) and Dr. V. Rumjanek (Instituto de Bioquímica Médica Leopoldo de Meis, Universidade Federal do Rio de Janeiro, Rio de Janeiro, Brazil), respectively. The HEK293T non-tumor derived cell line and human isolated mononuclear cells (PBMC) were also tested. […]
(§6) To investigate the cytotoxic potential of the isolated compounds, the MTT colorimetric assay was performed. […] The compounds were evaluated at a final maximum concentration of 100 μM. […] Absorbance was measured with an iMark micro-plate reader (Bio-Rad, USA) at 595 nm. […] The percentage of cytotoxic activity of the assayed compounds was determined by the following formula: cytotoxicity (%) = [1 − (optical density of treated cells − optical density DMSO)/(optical density of ethanol control cells − optical density DMSO)] × 100.

CML cells = test: MTT assay, summary; assay type: cell-based; settings: Homo sapiens, read-out: IC50, range
Source text: as §5, §6

ALL cells = test: MTT assay, summary; assay type: cell-based; settings: Homo sapiens, read-out: IC50, range
Source text: as §5, §6

O=C(/C=C/c1ccccc1)c1ccc(O)cc1O [Compound 1, 2′,4′-dihydroxychalcone]
cells in the G2/M phase (K562 cells): 19%
hypodiploid sub-G1 population (K562 cells; ethanol control 1%): 25%
hypodiploid sub-G1 population (CCRF-CEM cells; ethanol control 1%): 10%
cells in the G2/M phase (CCRF-CEM cells; ethanol control 7%): 34%
IC50 (normal hepatocytes): 34 µg/mL (≈ 142 µM)
IC50 ([1]; Homo sapiens, Lucena 1, 72 h): < 30 µM
IC50 [1]: 30 µM
resistant index (RI) = IC50 resistant cells/IC50 sensitive cells ([1]; Lucena 1 vs K562): 1.1
IC50 [2]: 9.9 µM
resistant index (RI) = IC50 resistant cells/IC50 sensitive cells ([2]; CEM/ADR5000 vs CCRF-CEM): 1.5
IC50 ([2]; Homo sapiens, ADR5000, 72 h): < 10 µM
selectivity index (IC50 ratio) ([2]; IC50 HEK293T / IC50 CEM/ADR5000): 6.8
selectivity index (IC50 ratio) ([2]; IC50 PBMC / IC50 CEM/ADR5000): 8.4
IC50 [3]: 82.8 µM
IC50 (CML cells): 27.5 to 30 µM
IC50 (ALL cells): 6.6 to 9.9 µM
